Results as given in ChEMBL document CHEMBL4725375, “Total synthesis and a systematic structure-activity relationship study of WAP-8294A2” (2020).
≈ marks a conversion by molar mass, not a printed value.

Experiments:
[1] = system: Staphylococcus aureus; assay: Antibacterial activity against Staphylococcus aureus ATCC 29213 by CLSI M07-A8 protocol based microdilution method; format: functional
[2] = system: Staphylococcus aureus; assay: Antibacterial activity against methicillin-resistant Staphylococcus aureus SA86 by CLSI M07-A8 protocol based microdilution method; format: functional

| SMILES | MIC [1] | MIC [2] |
| --- | --- | --- |
| CC(C)CCC[C@@H]1CC(=O)N[C@@H](CO)C(=O)N[C@H](CC(N)=O)C(=O)N[C@@H](CO)C(=O)NCC(=O)N(C)[C@H](Cc2ccccc2)C(=O)N[C@@H](CC(C)C)C(=O)N[C@H](C)C(=O)N[C@@H](CCC(=O)O)C(=O)N[C@H](CC(N)=O)C(=O)N[C@H](Cc2c[nH]c3ccccc23)C(=O)N[C@H](CCCN)C(=O)N(C)[C@@H](C(C)C)C(=O)O1 | ≥ 32 µg/mL | ≥ 32 µg/mL |
| CC(C)CCC[C@@H]1CC(=O)N[C@@H](CO)C(=O)N[C@H](CC(N)=O)C(=O)N[C@@H](CO)C(=O)NCC(=O)N(C)[C@H](Cc2ccccc2)C(=O)N[C@@H](CC(C)C)C(=O)N[C@H](CCCN)C(=O)N[C@@H](CCC(=O)O)C(=O)N[C@H](CC(N)=O)C(=O)N[C@H](Cc2ccccc2)C(=O)N[C@H](CCCN)C(=O)N(C)[C@@H](C(C)C)C(=O)O1 | ≥ 32 µg/mL | ≥ 32 µg/mL |
| CC(C)CCC[C@@H]1CC(=O)N[C@@H](CO)C(=O)N[C@H](CC(N)=O)C(=O)N[C@@H](C)C(=O)NCC(=O)N(C)[C@H](Cc2ccccc2)C(=O)N[C@@H](CC(C)C)C(=O)N[C@H](CCCN)C(=O)N[C@@H](CCC(=O)O)C(=O)N[C@H](CC(N)=O)C(=O)N[C@H](Cc2c[nH]c3ccccc23)C(=O)N[C@H](CCCN)C(=O)N(C)[C@@H](C(C)C)C(=O)O1 | 2 µg/mL (≈ 1.31 µM) | 2 µg/mL (≈ 1.31 µM) |
| CC(C)CCC[C@@H]1CC(=O)N[C@@H](CO)C(=O)N[C@H](CC(N)=O)C(=O)N[C@@H](CCCCN)C(=O)NCC(=O)N(C)[C@H](Cc2ccccc2)C(=O)N[C@@H](CC(C)C)C(=O)N[C@H](CCCN)C(=O)N[C@@H](CCC(=O)O)C(=O)N[C@H](CC(N)=O)C(=O)N[C@H](Cc2c[nH]c3ccccc23)C(=O)N[C@H](CCCN)C(=O)N(C)[C@@H](C(C)C)C(=O)O1 | 4 µg/mL (≈ 2.52 µM) | 2 µg/mL (≈ 1.26 µM) |
| CC(C)CCC[C@@H]1CC(=O)N[C@@H](CO)C(=O)N[C@H](CC(N)=O)C(=O)N[C@@H](CO)C(=O)NCC(=O)N(C)[C@H](Cc2ccccc2)C(=O)N[C@@H](CC(C)C)C(=O)N[C@H](CCCN)C(=O)N[C@@H](CCC(=O)O)C(=O)N[C@H](CC(N)=O)C(=O)N[C@H](Cc2c[nH]c3ccccc23)C(=O)N[C@H](CCCNC(=N)N)C(=O)N(C)[C@@H](C(C)C)C(=O)O1 | 1 µg/mL (≈ 0.629 µM) | 2 µg/mL (≈ 1.26 µM) |
| CC(C)CCC[C@@H]1CC(=O)N[C@@H](CO)C(=O)N[C@H](CC(N)=O)C(=O)N[C@@H](CO)C(=O)NCC(=O)N(C)[C@H](Cc2ccccc2)C(=O)N[C@@H](CC(C)C)C(=O)N[C@H](CCCCN)C(=O)N[C@@H](CCC(=O)O)C(=O)N[C@H](CC(N)=O)C(=O)N[C@H](Cc2c[nH]c3ccccc23)C(=O)N[C@H](CCCN)C(=O)N(C)[C@@H](C(C)C)C(=O)O1 | 1 µg/mL (≈ 0.641 µM) | 2 µg/mL (≈ 1.28 µM) |
| CC(C)CCC[C@@H]1CC(=O)N[C@@H](CO)C(=O)N[C@H]([C@H](O)C(N)=O)C(=O)N[C@@H](CO)C(=O)NCC(=O)N(C)[C@H](Cc2ccccc2)C(=O)N[C@@H](CC(C)C)C(=O)N[C@H](CCCN)C(=O)N[C@@H](CCC(=O)O)C(=O)N[C@H](CC(N)=O)C(=O)N[C@H](Cc2c[nH]c3ccccc23)C(=O)N[C@H](CCCN)C(=O)N(C)[C@@H](C(C)C)C(=O)O1 | 1 µg/mL (≈ 0.64 µM) | 1 µg/mL (≈ 0.64 µM) |
| CC(C)CCC[C@@H]1CC(=O)N[C@@H](CO)C(=O)N[C@H](CC(N)=O)C(=O)N[C@@H](CO)C(=O)NCC(=O)N(C)[C@H](Cc2ccccc2)C(=O)N[C@@H](CC(C)C)C(=O)N[C@H](CCCN)C(=O)N[C@@H](C)C(=O)N[C@H](CC(N)=O)C(=O)N[C@H](Cc2c[nH]c3ccccc23)C(=O)N[C@H](CCCN)C(=O)N(C)[C@@H](C(C)C)C(=O)O1 | 1 µg/mL (≈ 0.672 µM) | 0.5 µg/mL (≈ 0.336 µM) |
| CC(C)CCC[C@@H]1CC(=O)N[C@@H](CO)C(=O)N[C@H](CC(N)=O)C(=O)N[C@@H](CO)C(=O)N[C@@H](C)C(=O)N(C)[C@H](Cc2ccccc2)C(=O)N[C@@H](CC(C)C)C(=O)N[C@H](CCCN)C(=O)N[C@@H](CCC(=O)O)C(=O)N[C@H](CC(N)=O)C(=O)N[C@H](Cc2c[nH]c3ccccc23)C(=O)N[C@H](CCCN)C(=O)N(C)[C@@H](C(C)C)C(=O)O1 | ≥ 32 µg/mL | ≥ 32 µg/mL |
| CC(C)CCC[C@@H]1CC(=O)N[C@@H](CO)C(=O)N[C@H](CC(N)=O)C(=O)N[C@@H](CO)C(=O)NCC(=O)N(C)[C@H](Cc2ccccc2)C(=O)N[C@@H](CC(C)C)C(=O)N[C@H](CCCN)C(=O)N[C@@H](CCC(=O)O)C(=O)N[C@H](CC(N)=O)C(=O)N[C@H](Cc2c[nH]c3ccccc23)C(=O)N[C@H](CCCN)C(=O)N(C)[C@@H](C(C)C)C(=O)O1 | 1 µg/mL (≈ 0.647 µM) | 1 µg/mL (≈ 0.647 µM) |
| CC(C)CCC[C@@H]1CC(=O)N[C@@H](CO)C(=O)N[C@H](CC(N)=O)C(=O)N[C@@H](CO)C(=O)NCC(=O)N[C@H](C)C(=O)N[C@@H](CC(C)C)C(=O)N[C@H](CCCN)C(=O)N[C@@H](CCC(=O)O)C(=O)N[C@H](CC(N)=O)C(=O)N[C@H](Cc2c[nH]c3ccccc23)C(=O)N[C@H](CCCN)C(=O)N(C)[C@@H](C(C)C)C(=O)O1 | ≥ 32 µg/mL | ≥ 32 µg/mL |
| CC(C)CCC[C@@H]1CC(=O)N[C@@H](CO)C(=O)N[C@H](CC(N)=O)C(=O)N[C@@H](CO)C(=O)NCC(=O)N(C)[C@H](Cc2ccccc2)C(=O)N[C@@H](CC(C)C)C(=O)N[C@H](CCCN)C(=O)N[C@@H](CCC(=O)O)C(=O)N[C@H](C)C(=O)N[C@H](Cc2c[nH]c3ccccc23)C(=O)N[C@H](CCCN)C(=O)N(C)[C@@H](C(C)C)C(=O)O1 | 2 µg/mL (≈ 1.33 µM) | 1 µg/mL (≈ 0.665 µM) |
| CC(C)CCC[C@@H]1CC(=O)N[C@@H](CO)C(=O)N[C@H](CC(N)=O)C(=O)N[C@@H](CO)C(=O)NCC(=O)N(C)[C@H](Cc2ccccc2)C(=O)N[C@@H](CCCCN)C(=O)N[C@H](CCCN)C(=O)N[C@@H](CCC(=O)O)C(=O)N[C@H](CC(N)=O)C(=O)N[C@H](Cc2c[nH]c3ccccc23)C(=O)N[C@H](CCCN)C(=O)N(C)[C@@H](C(C)C)C(=O)O1 | ≥ 32 µg/mL | ≥ 32 µg/mL |
| CC(C)CCC[C@@H]1CC(=O)N[C@@H](CO)C(=O)N[C@H](CC(N)=O)C(=O)N[C@@H](CO)C(=O)NCC(=O)N(C)[C@H](Cc2ccccc2)C(=O)N[C@@H](CC(C)C)C(=O)N[C@H](CCCN)C(=O)N[C@@H](CCC(=O)O)C(=O)N[C@H](CC(N)=O)C(=O)N[C@H](Cc2c[nH]c3ccccc23)C(=O)N[C@H](CCCN)C(=O)N[C@@H](C(C)C)C(=O)O1 | ≥ 32 µg/mL | ≥ 32 µg/mL |
| CC(C)CCC[C@@H]1CC(=O)N[C@@H](CO)C(=O)N[C@H](C)C(=O)N[C@@H](CO)C(=O)NCC(=O)N(C)[C@H](Cc2ccccc2)C(=O)N[C@@H](CC(C)C)C(=O)N[C@H](CCCN)C(=O)N[C@@H](CCC(=O)O)C(=O)N[C@H](CC(N)=O)C(=O)N[C@H](Cc2c[nH]c3ccccc23)C(=O)N[C@H](CCCN)C(=O)N(C)[C@@H](C(C)C)C(=O)O1 | 1 µg/mL (≈ 0.665 µM) | 2 µg/mL (≈ 1.33 µM) |
| CC(C)CCC[C@@H]1CC(=O)N[C@@H](C)C(=O)N[C@H](CC(N)=O)C(=O)N[C@@H](CO)C(=O)NCC(=O)N(C)[C@H](Cc2ccccc2)C(=O)N[C@@H](CC(C)C)C(=O)N[C@H](CCCN)C(=O)N[C@@H](CCC(=O)O)C(=O)N[C@H](CC(N)=O)C(=O)N[C@H](Cc2c[nH]c3ccccc23)C(=O)N[C@H](CCCN)C(=O)N(C)[C@@H](C(C)C)C(=O)O1 | 2 µg/mL (≈ 1.31 µM) | 2 µg/mL (≈ 1.31 µM) |
| CC(C)CCC[C@@H]1CC(=O)N[C@@H](CO)C(=O)N[C@H](CC(N)=O)C(=O)N[C@@H](CO)C(=O)NCC(=O)N(C)[C@H](Cc2ccccc2)C(=O)N[C@@H](CC(C)C)C(=O)N[C@H](CCCN)C(=O)N[C@@H](CCC(=O)O)C(=O)N[C@H](CC(N)=O)C(=O)N[C@H](C)C(=O)N[C@H](CCCN)C(=O)N(C)[C@@H](C(C)C)C(=O)O1 | ≥ 32 µg/mL | ≥ 32 µg/mL |
| CC(C)CCC[C@@H]1CC(=O)N[C@@H](CO)C(=O)N[C@H]([C@@H](O)C(N)=O)C(=O)N[C@@H](CO)C(=O)NCC(=O)N(C)[C@H](Cc2ccccc2)C(=O)N[C@@H](CC(C)C)C(=O)N[C@H](CCCN)C(=O)N[C@@H](CCC(=O)O)C(=O)N[C@H](CC(N)=O)C(=O)N[C@H](Cc2c[nH]c3ccccc23)C(=O)N[C@H](CCCN)C(=O)N(C)[C@@H](C(C)C)C(=O)O1 | 1 µg/mL (≈ 0.64 µM) | 1 µg/mL (≈ 0.64 µM) |
| CC(C)CCC[C@@H]1CC(=O)N[C@@H](CO)C(=O)N[C@H](CC(N)=O)C(=O)N[C@@H](CO)C(=O)NCC(=O)N(C)[C@H](Cc2ccccc2)C(=O)N[C@@H](CC(C)C)C(=O)N[C@H](CCCN)C(=O)N[C@@H](CCCCN)C(=O)N[C@H](CC(N)=O)C(=O)N[C@H](Cc2c[nH]c3ccccc23)C(=O)N[C@H](CCCN)C(=O)N(C)[C@@H](C(C)C)C(=O)O1 | 2 µg/mL (≈ 1.29 µM) | 1 µg/mL (≈ 0.647 µM) |
| CC(C)CCC[C@@H]1CC(=O)N[C@@H](CO)C(=O)N[C@H](CC(N)=O)C(=O)N[C@@H](CO)C(=O)NCC(=O)N(C)[C@H](Cc2ccccc2)C(=O)N[C@@H](C)C(=O)N[C@H](CCCN)C(=O)N[C@@H](CCC(=O)O)C(=O)N[C@H](CC(N)=O)C(=O)N[C@H](Cc2c[nH]c3ccccc23)C(=O)N[C@H](CCCN)C(=O)N(C)[C@@H](C(C)C)C(=O)O1 | ≥ 32 µg/mL | ≥ 32 µg/mL |
| CC(C)CCC[C@@H]1CC(=O)N[C@@H](CO)C(=O)N[C@H](CC(N)=O)C(=O)N[C@@H](CO)C(=O)NCC(=O)N(C)[C@H](Cc2ccccc2)C(=O)N[C@@H](CC(C)C)C(=O)N[C@H](CCCN)C(=O)N[C@@H](CCC(=O)O)C(=O)N[C@H](CC(N)=O)C(=O)N[C@H](Cc2c[nH]c3ccccc23)C(=O)N[C@H](C)C(=O)N(C)[C@@H](C(C)C)C(=O)O1 | ≥ 32 µg/mL | ≥ 32 µg/mL |
| CC(C)CCC[C@@H]1CC(=O)N[C@@H](CO)C(=O)N[C@H](CC(N)=O)C(=O)N[C@@H](CO)C(=O)NCC(=O)N(C)[C@H](Cc2ccccc2)C(=O)N[C@@H](CC(C)C)C(=O)N[C@H](CCCN)C(=O)N[C@@H](CCC(=O)O)C(=O)N[C@H](CC(N)=O)C(=O)N[C@H](Cc2c[nH]c3ccccc23)C(=O)N[C@H](CCCCN)C(=O)N(C)[C@@H](C(C)C)C(=O)O1 | 1 µg/mL (≈ 0.641 µM) | 2 µg/mL (≈ 1.28 µM) |
| CC(C)CCC[C@@H]1CC(=O)N[C@@H](CO)C(=O)N[C@H](CC(N)=O)C(=O)N[C@@H](CO)C(=O)NCC(=O)N(C)[C@H](Cc2ccccc2)C(=O)N[C@@H](CC(C)C)C(=O)N[C@H](CCCN)C(=O)N[C@@H](CCC(=O)O)C(=O)N[C@H](CC(N)=O)C(=O)N[C@H](Cc2ccc(O)cc2)C(=O)N[C@H](CCCN)C(=O)N(C)[C@@H](C(C)C)C(=O)O1 | ≥ 32 µg/mL | ≥ 32 µg/mL |
